# pEC50, pIC50: −log10 of the molar value.
# Key:
# [1] = molecular target: human muscarine receptor M3 (Homo sapiens, UniProt P20309); assay: Inhibitory activity against human muscarine receptor M3 (aequorin luminescence in CHO cells, acetylcholine challenge); assay type: cell-based; details: CHO cells expressing hM3 and apo-Aequorin; acetylcholine chloride 112.92 nM
# Protocol: CHO cells (PerkinElmer, ES-212-AF) that stably express human muscarine receptor 3 (hM3) and apo-Aequorin were cultured at 37° C. 5% CO2 in Ham's F12 media (Invitrogen 12500-062) containing 10% fetal bovine serum (FBS) (Gibico 10099-141), 400 μg/mL G418 (sigma G5013) and 250 μg/mL Zeocin (Invivogen ant-zn-5p), until a confluency of 90% to 100% was reached. Cells were separated by rinsing with PBS/5 mM EDTA, collected by centrifugation, re-suspended in phenol red-free Ham's F12 media (Invitrogen 12500-062) containing 0.1% BSA (BOVOGEN BSAS 100), and counted. The cell concentration was adjusted to 1×10^6 cells/ml. 15 ml of the cell suspension was added to a 50-ml centrifuge tube, to which Coelenterazine-h (Promega S2011) was added to a final concentration of 5 μM. The tube was wrapped with a tin foil to shade light, and incubated on a rotary shaker at 20° C. for 4 hours. The cells were diluted with a phenol red-free/0.1% BSA Ham's F12 medium to a final concentration of 5.0/10^5 cells/ml, placed on a rotary shaker in low-speed rotation, and incubated at room temperature for at least 1 hour. The compounds of the Examples were formulated with DMSO into 10 mM stock solutions, diluted in series with a phenol red-free/0.1% BSAHam's F12 medium (log(M): −7, −8, −9, −10, −11), and added to a 96-well plate at 50 μl/well. 50 μl cell suspension was further added to each well (25,000 cells/well) and incubated for 15 min at room temperature. The 96-well plate was placed under a microplate reader (Perkin Elmer, Envision), and a 50 μl solution of acetylcholine chloride (Sigma A6625) was added to each well at a concentration of 112.92 nM (hM3) with a microplate reader sample injector. The luminescence was recorded over 20 seconds, and IC50 values were calculated and analyzed by Origin 7.5.
# [2] = molecular target: human β2-adrenergic receptor (Homo sapiens, UniProt P07550); assay: Agonistic activity on human β2-adrenergic receptor (LANCE Ultra cAMP Assay in CHO cells); assay type: cell-based; details: CHO cells expressing hβ2; cAMP TR-FRET
# Protocol: The agonistic activity of the compounds of the Examples on the human adrenergic receptor was measured by the LANCE Ultra cAMP Assay.
# CHO cells (PerkinElmer, ES-034-AF) that stably express human adrenergic receptor (hβ2) were cultured at 37° C. 5% CO2 in MEM-alpha media (Invitrogen 12561-056) containing 10% fetal bovine serum (FBS) (Gibico 10099-141) and 250 μg/ml Zeocin (InvivoGen ant-zn-5p), until a confluency of 90% to 100% was reached. Then the agonism on cAMP was tested by using a LANCE Ultra cAMP Assay kit (PerkinElmer TRF0263). Cells were separated with PBS/5 mM EDTA, collected by centrifugation, re-suspended in Stimulation Buffer (1×HBSS, 5 mM HEPES, 0.5 mM IBMX, 0.1% BSA, pH=7.4), and adjusted to a cell concentration of 6×10^5 cells/ml. The compounds of the Examples were formulated with DMSO into 10 mM stock solutions, diluted in series with Stimulation Buffer, and added to a 384-well plate at 5 μl/well. 5 μl cell suspension was further added to each well (3,000 cells/well), incubated for 30 min at room temperature, then 5 μl of a 4×Eu-cAMP trace working solution was added to each well, and then 5 μl of a 4×Ulight-anti-cAMP working solution was added to each well, followed by incubation at room temperature for 1 hour. The 384-well plate was detected for TR-FRET under a microplate reader (Perkin Elmer, Envision), and EC50 values were calculated and analyzed by Origin 7.5.
# [3] = tested on: methacholine-induced bronchoconstriction in guinea pigs; assay: Inhibition against methacholine-induced bronchoconstriction in guinea pigs (PenH, whole-body plethysmograph); assay type: in vivo; details: intratracheal, 0.3 nmol per animal, 3 mg/ml methacholine; for PenH Inhibition (%) 4 h: 4 h after administration; for PenH Inhibition (%) 24 h: 24 h after administration
# Protocol: 8-week-old guinea pigs (all male) were purchased from Vital River Laboratory Animal Technology Co., Ltd., and adapted for 3 days before the experiments were started. The test compounds were formulated into 0.6 mM stock solutions with 83% dry ethanol+17% Tween80, which were diluted 500 times before administration. Before administration, the animals were anesthetized with 5% isoflurane by using a small-animal anesthetic apparatus (Matrx: VME2), wherein the anesthetic duration was 1.5 to 2 min. The anesthetized guinea pigs were fixed on a tracheal cannula platform, and intratracheally administrated with the compounds at 250 μl/animal by using a rat liquid-aerosol administration kit (penn-century; MSA-250-R). 4 hours and 24 hours after administration, the enhanced pauses (PenH) of the guinea pigs were measured in a whole-body plethysmograph (DSI; GS220A12-R7B). 3 mg/ml methacholine (Mch) was administrated by nebulization for 36 sec, and data was recorded over 7 min. The average of PenH was calculated (see J Pharmacol Exp Ther 345:260-270).
# PenH calculation formula: PenH=PEP/PIP*Pause; Pause=(Te−Tr)/Tr
# Te: Duration of expiratory phase (s)
# Tr: Duration of relaxation phase (s)
# PEP: Expiratory peak flow rate (ml/s)
# PIP: Inspiratory peak flow rate (ml/s)
# [4] = Pharmacokinetic evaluation in SD rats; assay type: in vivo
# Protocol: 18 male SD rats, eight weeks old, were purchased from Vital River Laboratory Animal Technology Co., Ltd., and adapted for 3 days before the experiments were started. The SD rats were randomized into 3 groups, fasted one day before administration but allowed access to water. The 3 groups of animals were administrated with 1 mg/kg compound either by tail vein injection (iv) or by intratracheal (it) administration. The compounds were formulated into 20 mg/ml stock solutions with 83% ethanol and 17% Tween80. For intravenous injection, 0.1 ml of the stock solution was diluted to the final volume with 9.9 ml physiological saline. For intratracheal administration, 0.25 ml of the stock solution was diluted with 4.75 ml physiological saline to the final volume. For the group for intravenous injection, right before administration (0 h) and 5 min, 15 min, 30 min, 1.0, 2.0, 4.0, 8.0, 24.0 h after administration, 0.1 ml blood was taken from the orbit, heparin was added for anticoagulation, and plasma was separated after centrifugation at 4° C., 3000 rpm for 10 min and stored at −80° C. before testing. For the group for intratracheal administration, right before administration and 5 min, 15 min, 30 min, 1.0, 2.0, 4.0, 8.0, 24.0 h after administration, blood was taken and treated the same way as for the group for intravenous injection. 30 μl plasma of rat at each of the time points was mixed with 200 μl acetonitrile solution containing an internal standard, vortexed for 1 min, and centrifuged at 11300 rpm for 10 min, and 175 μl of the supernatant was added to a 96-well plated for LC-MS/MS analysis. The major pharmacokinetic parameters were analyzed using the software WinNonlin 6.3 at the non-compartment mode.
# [5] = Sprague-Dawley (SD), rat, inhaled or intranasal, male SD rats, it (intratracheal), 1 mg/kg, plasma
# [6] = Sprague-Dawley (SD), rat, male SD rats, iv (tail vein), 1 mg/kg, plasma
# Sequence of human β2-adrenergic receptor (P07550 whole entry): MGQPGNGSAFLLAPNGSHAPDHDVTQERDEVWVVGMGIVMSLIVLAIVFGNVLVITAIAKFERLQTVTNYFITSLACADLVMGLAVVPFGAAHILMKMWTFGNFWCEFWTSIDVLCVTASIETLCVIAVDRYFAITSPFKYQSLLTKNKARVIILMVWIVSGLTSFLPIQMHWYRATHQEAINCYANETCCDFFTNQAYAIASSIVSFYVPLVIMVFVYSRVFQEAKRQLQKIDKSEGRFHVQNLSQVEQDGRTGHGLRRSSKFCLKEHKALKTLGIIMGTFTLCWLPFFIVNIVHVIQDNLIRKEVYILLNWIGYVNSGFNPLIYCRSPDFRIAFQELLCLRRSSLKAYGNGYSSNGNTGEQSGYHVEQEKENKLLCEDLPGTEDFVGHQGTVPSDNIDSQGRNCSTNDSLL
# Sequence of human muscarine receptor M3 (P20309 whole entry): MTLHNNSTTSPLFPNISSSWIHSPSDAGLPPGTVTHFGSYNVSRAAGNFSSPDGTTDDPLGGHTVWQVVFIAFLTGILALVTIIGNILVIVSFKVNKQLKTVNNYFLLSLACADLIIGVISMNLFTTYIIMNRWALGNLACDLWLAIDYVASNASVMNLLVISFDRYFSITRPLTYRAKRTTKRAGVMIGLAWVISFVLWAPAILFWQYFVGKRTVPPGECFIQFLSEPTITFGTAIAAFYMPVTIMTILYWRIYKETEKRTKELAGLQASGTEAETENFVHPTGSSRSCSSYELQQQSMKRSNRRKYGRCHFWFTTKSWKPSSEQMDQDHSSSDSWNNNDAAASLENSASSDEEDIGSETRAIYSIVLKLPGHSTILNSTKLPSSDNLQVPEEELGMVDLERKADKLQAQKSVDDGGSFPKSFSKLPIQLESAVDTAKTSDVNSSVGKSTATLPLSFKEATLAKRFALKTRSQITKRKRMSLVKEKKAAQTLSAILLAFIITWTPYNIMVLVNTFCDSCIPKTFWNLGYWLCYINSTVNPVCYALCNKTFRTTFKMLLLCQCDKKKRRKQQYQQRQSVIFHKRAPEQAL
Compound,pIC50 [1],pEC50 [2],PenH Inhibition (%) 4 h [3] [%],PenH Inhibition (%) 24 h [3] [%],other results
"COc1cc(NC(=O)OC[C@H]2CCN(C(=O)CCN3CCC(OC(=O)Nc4ccccc4-c4ccccc4)CC3)C2)c(Cl)cc1CNC[C@H](O)c1ccc(O)c2[nH]c(=O)ccc12 [Compound 5, [(3S)-1-[3-[4-[(2-phenylphenyl)carbamoyloxy]-1-piperidyl]propanoyl]pyrrolidin-3-yl]methyl N-[2-chloro-4-[[[(2R)-2-hydroxy-2-(8-hydroxy-2-oxo-1H-quinolin-5-yl)ethyl]amino]methyl]-5-methoxy-phenyl]carbamate; ditrifluoroacetic acid]",9.05,–,96.4,78.6,–
"COc1cc(NC(=O)OC[C@@H]2CCN(C(=O)CCN3CCC(OC(=O)Nc4ccccc4-c4ccccc4)CC3)C2)c(Cl)cc1CNC[C@H](O)c1ccc(O)c2[nH]c(=O)ccc12 [Compound 4, [(3R)-1-[3-[4-[(2-phenylphenyl)carbamoyloxy]-1-piperidyl]propanoyl]pyrrolidin-3-yl]methyl N-[2-chloro-4-[[[(2R)-2-hydroxy-2-(8-hydroxy-2-oxo-1H-quinolin-5-yl)ethyl]amino]methyl]-5-methoxy-phenyl]carbamate; di(2,2,2-trifluoro)acetic acid]",8.65,–,–,–,–
"O=C(Nc1ccccc1-c1ccccc1)OC1CCN(CCC(=O)N2CCC(C(=O)Nc3ccc(CNC[C@H](O)c4ccc(O)c5[nH]c(=O)ccc45)cc3)CC2)CC1 [Compound 1, [1-[3-[4-[[4-[[[(2R)-2-hydroxy-2-(8-hydroxy-2-oxo-1H-quinolin-5-yl)ethyl]amino]methyl]phenyl]carbamoyl]-1-piperidyl]-3-oxo-propyl]-4-piperidyl]N-(2-phenylphenyl)carbamate; ditrifluoroacetic acid]",7.84,–,–,–,–
"COc1cc(NC(=O)OCC2CCN(C(=O)CCN3CCC(OC(=O)Nc4ccccc4-c4ccccc4)CC3)CC2)c(Cl)cc1CNC[C@H](O)c1ccc(O)c2[nH]c(=O)ccc12 [Compound 3, [1-[3-[4-[(2-phenylphenyl)carbamoyloxy]-1-piperidyl]propanoyl]-4-piperidyl]methyl N-[2-chloro-4-[[[(2R)-2-hydroxy-2-(8-hydroxy-2-oxo-1H-quinolin-5-yl)ethyl]amino]methyl]-5-methoxy-phenyl]carbamate; di(2,2,2-trifluoroacetic acid)]",8.42,7.99,–,–,–
"O=C(Nc1ccc(CNC[C@H](O)c2ccc(O)c3[nH]c(=O)ccc23)cc1)OCC1CCN(C(=O)CCN2CCC(OC(=O)Nc3ccccc3-c3ccccc3)CC2)CC1 [Compound 2, [1-[3-[4-[(2-phenylphenyl)carbamoyloxy]-1-piperidyl]propanoyl]-4-piperidyl]methyl N-[4-[[[(2R)-2-hydroxy-2-(8-hydroxy-2-oxo-1H-quinolin-5-yl)ethyl]amino]methyl]phenyl]carbamate; ditrifluoroacetic acid]",8.77,8.73,94.8,53.8,"AUC(0-inf) [4, 5]: 11.6 ng·h/mL; Cmax [4, 5]: 7.08 ng/mL; Tmax [4, 5]: 34.8 min; half-life [4, 5]: 45 min; AUC(0-inf) [4, 6]: 9.27 ng·h/mL; half-life [4, 6]: 27.6 min; in vivo exposure level ([4]; after iv and it administrations, rats, in words): low in vivo exposure level"

# Further lines, with some results ahead:
pIC50 [1],pEC50 [2],Compound,PenH Inhibition (%) 4 h [3] [%],PenH Inhibition (%) 24 h [3] [%],other results
8.43,8.40,"O=C(CC1CCN(C(=O)CCN2CCC(OC(=O)Nc3ccccc3-c3ccccc3)CC2)CC1)Nc1ccc(CNC[C@H](O)c2ccc(O)c3[nH]c(=O)ccc23)cc1 [Compound 9, [1-[3-[4-[2-[4-[[[(2R)-2-hydroxy-2-(8-hydroxy-2-oxo-1H-quinolin-5-yl)ethyl]amino]methyl]anilino]-2-oxo-ethyl]-1-piperidyl]-3-oxo-propyl]-4-piperidyl]N-(2-phenylphenyl)carbamate; di(trifluoroacetic acid)]",–,–,–
8.88,8.22,"O=C(Nc1ccc(CNC[C@H](O)c2ccc(O)c3[nH]c(=O)ccc23)cc1F)OCC1CCN(C(=O)CCN2CCC(OC(=O)Nc3ccccc3-c3ccccc3)CC2)CC1 [Compound 7, [1-[3-[4-[(2-phenylphenyl)carbamoyloxy]-1-piperidyl]propanoyl]-4-piperidyl]methyl N-[2-fluoro-4-[[[(2R)-2-hydroxy-2-(8-hydroxy-2-oxo-1H-quinolin-5-yl)ethyl]amino]methyl]phenyl]carbamate; ditrifluoroacetic acid]",72.1,55.8,–
8.19,7.76,"CN(CCNC[C@H](O)c1ccc(O)c2[nH]c(=O)ccc12)C(=O)C1CCN(C(=O)CCN2CCC(OC(=O)Nc3ccccc3-c3ccccc3)CC2)CC1 [Compound 6, [1-[3-[4-[2-[[(2R)-2-hydroxy-2-(8-hydroxy-2-oxo-1H-quinolin-5-yl)ethyl]amino]ethyl-methyl-carbamoyl]-1-piperidyl]-3-oxo-propyl]-4-piperidyl]N-(2-phenylphenyl)carba mate; ditrifluoroacetic acid]",–,–,–
8.48,8.48,"O=C(Nc1ccc(CNC[C@H](O)c2ccc(O)c3[nH]c(=O)ccc23)c(F)c1)OCC1CCN(C(=O)CCN2CCC(OC(=O)Nc3ccccc3-c3ccccc3)CC2)CC1 [Compound 8, [1-[3-[4-[(2-phenylphenyl)carbamoyloxy]-1-piperidyl]propanoyl]-4-piperidyl]methyl N-[3-fluoro-4-[[[(2R)-2-hydroxy-2-(8-hydroxy-2-oxo-1H-quinolin-5-yl)ethyl]amino]methyl]phenyl]carbamate; ditrifluoroacetic acid]",78.2,45.3,–

# — patent publication US20210205291A1, “NITROGENOUS HETEROCYCLIC AMIDE DERIVATIVE, PREPARATION METHOD THEREOF, AND PHARMACEUTICAL APPLICATION” (Sichuan Haisco Pharmaceutical Co., Ltd., priority 2016, published 2021)
